Source: patent US20170074857A1, “MEDICATION ADHERENCE MONITORING DEVICE” (UNIVERSITY OF FLORIDA RESEARCH FOUNDATION, INC., priority 2014, published 2017)

Experiment: Example 4a: noncompartmental pharmacokinetics of exhaled 2-butanone and 2-pentanone by mGC;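 as to TThresh: time until breath level first exceeds the mGC detection limit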
Type: in vivo, human
From the text: Test Materials. […] 2-butanol was purchased from Penta Manufacturing Company (Fairfield, N.J.). 2-pentanol and L-carvone were purchased from Sigma-Aldrich (St. Louis, Mo.). […] 2-pentanone was also used as a taggant, but we hypothesized that its inherent volatility would allow exhalation without need for metabolism. L-carvone tastes like spearmint and was used as a flavor mask. All capsules were filled on the day of the experiment.
Subject Enrollment and Protocol. This protocol (20100140) was approved by the Western Institutional Review Board (Olympia, Wash.). Healthy subjects (n=5) aged >18 years of age and of either sex were recruited. Informed, written consent was obtained from all enrolled subjects. The study consisted of a single experimental limb with six replicates per subject. Therefore, for five subjects with six replicated experiments, a total of 30 studies were performed. Subjects were free to eat ad lib prior to participation in the study. At commencement of the experiments, subjects provided a baseline breath sample (designated time 0 min) into the mGC for analysis as described subsequently. Then, subjects orally consumed the previously detailed capsule with 177 mL (6 ounces) of water. Following ingestion, we observed the breath concentration-time relationships of 2-butanone and 2-pentanone by collecting single-breath samples at times 5, 10, 15, 20, 30, 45, and 60 min. After 60 min, the experiment was concluded. After at least one day's respite, subjects returned for replicate experiments on five additional occasions.
2-Butanone and 2-Pentanone Measurement in Human Breath by mGC. Breath specimens were analyzed “real-time” to measure the concentrations of 2-butanone and 2-pentanone using the mGC (Xhale, Inc. Gainesville, Fla.) as previously described. In brief, a mouthpiece (FST®, Intoximeters, Inc., St. Louis, Mo.) was attached to the inlet of the mGC. A 15 mL side-stream sample was aspirated during a single exhalation over 5 s through this inlet port to a room temperature concentrator trap containing 4 mg of Tenax TA (Sigma-Aldrich). The trap temperature was then increased to 130° C. and the volatile components transferred to a 5 m by 0.53 mm internal diameter, metal clad, BAC-1 capillary column (Restek Corp, Bellefonte, Pa.) operated at 55° C. The effluent from the column then flowed to the metal oxide detectors. Separation of the markers from other volatile organic compounds present in the sample (i.e., acetone and isoprene) occurred in approximately 2 min. Data were tabulated and graphically presented over time to determine the concentrations of 2-butanone and 2-pentanone in a given breath specimen. Data are reported in parts-per-billion (ppb) based on molar fractions to account for differing ambient atmospheric pressures and temperature.
Pharmacokinetic Analysis. Analyte breath concentrations reported as ppb were converted to ng/mL by multiplying each concentration by the molecular weight of the respective molecule to allow proper functioning of conventional PK software for noncompartmental analysis (WinNonlin 5.2, Pharsight Corporation, St. Louis, Mo.). Estimates were generated for the following PK parameters (abbreviation, unit): first-order elimination rate constant (Lambda Z, min-1), half-life of elimination (Half-life, min), maximal drug concentration (CMAX, μg/mL), time at maximal drug concentration (TMAX, min), area under concentration versus time curve from zero to the last time point (AUC0-LAST, min*μg/mL), area under concentration versus time curve from zero to infinity (AUC0-∞, min*μg/mL), percentage of area under concentration versus time curve from zero to infinity, which is extrapolated from AUC0-t (% AUC Extrap) and the mean residence time (MRT, min). The area under concentration versus time curve (AUC) was calculated using the linear trapezoidal rule. All values are reported separately for each subject as mean±standard deviation following conversion from ng/mL to ppb. […]

CCC(C)=O [Formulation 2-butanone, 2-butanone]
% AUC Extrap (30 observations): 17.9% | AUC0-8 (30 observations): 51190 min · ppb | AUC0-LAST (30 observations): 41820 min · ppb | CMAX (30 observations): 1376 ppb | Half-life (30 observations): 216 min | LAMBDA_Z (30 observations): 0.036 min⁻¹ | MRT0-last (30 observations): 25.7 min | TMAX (30 observations): 17.8 min | % AUC Extrap (REPLICATE 1): 41.3% | AUC0-LAST (REPLICATE 1): 53278 min · ppb | AUC0-∞ (REPLICATE 1): 64618 min · ppb | CMAX (REPLICATE 1): 1793 ppb | Half-life (REPLICATE 1): 21.1 min | LAMBDA_Z (REPLICATE 1): 0.036 min⁻¹ | MRT0-last (REPLICATE 1): 24.4 min | TMAX (REPLICATE 1): 15.0 min | TThresh (REPLICATE 1, same 5 subjects): 5.0 min | % AUC Extrap (REPLICATE 2): 47.3% | AUC0-LAST (REPLICATE 2): 44693 min · ppb | AUC0-∞ (REPLICATE 2): 58070 min · ppb | CMAX (REPLICATE 2): 1361 ppb | Half-life (REPLICATE 2): 24.1 min | LAMBDA_Z (REPLICATE 2): 0.033 min⁻¹ | MRT0-last (REPLICATE 2): 28.3 min | TMAX (REPLICATE 2): 21.0 min | TThresh (REPLICATE 2): 7.0 min | % AUC Extrap (REPLICATE 3): 31.3% | AUC0-LAST (REPLICATE 3): 36508 min · ppb | AUC0-∞ (REPLICATE 3): 42226 min · ppb | CMAX (REPLICATE 3): 1175 ppb | Half-life (REPLICATE 3): 16.4 min | LAMBDA_Z (REPLICATE 3): 0.048 min⁻¹ | MRT0-last (REPLICATE 3): 24.8 min | TMAX (REPLICATE 3): 17.0 min | TThresh (REPLICATE 3): 6.0 min | % AUC Extrap (REPLICATE 4): 37.3% | AUC0-LAST (REPLICATE 4): 44467 min · ppb | AUC0-∞ (REPLICATE 4): 52141 min · ppb | CMAX (REPLICATE 4): 1449 ppb | Half-life (REPLICATE 4): 21.2 min | LAMBDA_Z (REPLICATE 4): 0.038 min⁻¹ | MRT0-last (REPLICATE 4): 23.9 min | TMAX (REPLICATE 4): 19.0 min | TThresh (REPLICATE 4): 6.0 min | % AUC Extrap (REPLICATE 5): 54.6% | AUC0-LAST (REPLICATE 5): 37792 min · ppb | AUC0-∞ (REPLICATE 5): 491783 min · ppb | CMAX (REPLICATE 5): 1227 ppb | Half-life (REPLICATE 5): 27.7 min | LAMBDA_Z (REPLICATE 5): 0.026 min⁻¹ | MRT0-last (REPLICATE 5): 26.6 min | TMAX (REPLICATE 5): 15.0 min | TThresh (REPLICATE 5): 7.0 min | % AUC Extrap (REPLICATE 6): 39.2% | AUC0-LAST (REPLICATE 6): 34184 min · ppb | AUC0-∞ (REPLICATE 6): 40905 min · ppb | CMAX (REPLICATE 6): 1251 ppb | Half-life (REPLICATE 6): 18.9 min | LAMBDA_Z (REPLICATE 6): 0.037 min⁻¹ | MRT0-last (REPLICATE 6): 26.5 min | TMAX (REPLICATE 6): 20.0 min | TThresh (REPLICATE 6): 6.0 min | % AUC Extrap (SUBJECT 1): 22.6% | AUC0-LAST (SUBJECT 1): 45298 min · ppb | AUC0-∞ (SUBJECT 1): 59106 min · ppb | CMAX (SUBJECT 1): 1297 ppb | Half-life (SUBJECT 1): 22.6 min | LAMBDA_Z (SUBJECT 1): 0.033 min⁻¹ | MRT0-last (SUBJECT 1): 29.3 min | TMAX (SUBJECT 1): 21.7 min | TThresh (SUBJECT 1, six replicates): 6.7 min | % AUC Extrap (SUBJECT 2): 19.2% | AUC0-LAST (SUBJECT 2): 66466 min · ppb | AUC0-∞ (SUBJECT 2): 82628 min · ppb | CMAX (SUBJECT 2): 1926 ppb | Half-life (SUBJECT 2): 20.6 min | LAMBDA_Z (SUBJECT 2): 0.034 min⁻¹ | MRT0-last (SUBJECT 2): 27.7 min | TMAX (SUBJECT 2): 20.8 min | TThresh (SUBJECT 2): 5.0 min | % AUC Extrap (SUBJECT 3): 23.2% | AUC0-LAST (SUBJECT 3): 19608 min · ppb | AUC0-∞ (SUBJECT 3): 25623 min · ppb | CMAX (SUBJECT 3): 1021 ppb | Half-life (SUBJECT 3): 30.7 min | LAMBDA_Z (SUBJECT 3): 0.024 min⁻¹ | MRT0-last (SUBJECT 3): 22.7 min | TMAX (SUBJECT 3): 11.7 min | TThresh (SUBJECT 3): 5.8 min | % AUC Extrap (SUBJECT 4): 12.6% | AUC0-LAST (SUBJECT 4): 68147 min · ppb | AUC0-∞ (SUBJECT 4): 77593 min · ppb | CMAX (SUBJECT 4): 2238 ppb | Half-life (SUBJECT 4): 16.4 min | LAMBDA_Z (SUBJECT 4): 0.043 min⁻¹ | MRT0-last (SUBJECT 4): 26.2 min | TMAX (SUBJECT 4): 18.3 min | TThresh (SUBJECT 4): 5.8 min | % AUC Extrap (SUBJECT 5): 12.0% | AUC0-LAST (SUBJECT 5): 9581 min · ppb | AUC0-∞ (SUBJECT 5): 10999 min · ppb | CMAX (SUBJECT 5): 398 ppb | Half-life (SUBJECT 5): 17.5 min | LAMBDA_Z (SUBJECT 5): 0.046 min⁻¹ | MRT0-last (SUBJECT 5): 22.9 min | TMAX (SUBJECT 5): 16.7 min | TThresh (SUBJECT 5): 7.5 min | observed CMAX range (across subjects): 398-2,238 ppb | half life in breath (after oral 2-butanol (40 and 60 mg) to humans): 11 to 22 min | TThresh (mean of 30 observations (5 subjects, 6 replicates), oral 2-butanol 60 mg + 2-pentanone 60 mg): 6.2 min
